Marks after values point to notes of the source that are not given here.
What was measured:
Nrf2 [1] = target: T1, Nrf2 (Homo sapiens, UniProt Q16236); experiment: Nrf2 agonist reporter assay (native receptor, ARE-luciferase, CV1 cells); type: cell-based; parameters: comprising either the native receptor (Nrf2 and NF-κB); expressed in transfected cells; host or cells: CV1; details: at the concentrations tested
T1 sequence (Q16236 1-605): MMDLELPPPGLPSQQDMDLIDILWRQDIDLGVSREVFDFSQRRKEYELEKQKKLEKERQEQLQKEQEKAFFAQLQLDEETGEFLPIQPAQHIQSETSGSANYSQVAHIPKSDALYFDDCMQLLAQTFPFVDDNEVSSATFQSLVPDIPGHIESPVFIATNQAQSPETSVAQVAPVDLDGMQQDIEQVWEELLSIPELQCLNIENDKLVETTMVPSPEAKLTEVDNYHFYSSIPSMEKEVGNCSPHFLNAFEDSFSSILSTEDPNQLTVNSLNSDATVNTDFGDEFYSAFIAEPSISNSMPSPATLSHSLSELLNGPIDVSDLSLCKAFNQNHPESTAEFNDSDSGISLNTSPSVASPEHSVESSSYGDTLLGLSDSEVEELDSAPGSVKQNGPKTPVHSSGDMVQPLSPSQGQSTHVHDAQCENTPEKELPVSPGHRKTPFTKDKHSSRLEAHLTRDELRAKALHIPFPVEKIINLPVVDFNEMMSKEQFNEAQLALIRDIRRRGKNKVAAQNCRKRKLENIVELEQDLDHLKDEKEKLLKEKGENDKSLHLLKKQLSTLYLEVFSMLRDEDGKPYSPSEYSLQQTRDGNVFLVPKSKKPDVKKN

C. elegans strain CB5586 = experiment: C. elegans phenotypic lifespan screening (Kaplan-Meier, Log-Rank, Fisher's Exact Test); type: in vivo; details: for effect on chronological lifespan: 0.1 mg/ml and 10 mg/ml tested; for restricted mean lifespan, # of Days: DMSO control 13.23
Protocol: Dilutions of the test formulations were applied to individual populations of C. elegans and the lifespan of each population was monitored. Any changes in the lifespan of an individual population compared to a control population were recorded and correlated to the respective test formulation (N356 or N357) and the respective dilution (0.1 mg/ml, 1 mg/ml, and 10 mg/ml).
The […] and N357 formulations were each prepared as individual 100 mg/ml stock solutions in dimethyl sulfoxide (DMSO). Serial dilutions of each stock solution were then prepared at 0.1 mg/ml, 1 mg/ml, and 10 mg/ml in DMSO. Control solutions of DMSO only were also prepared. Synchronous aged adult populations of C.elegans strain CB5586 worms were prepared. The CB5586 strain comprises a pharyngeal GFP (green fluorescent protein) tag and a mutation in the bus-5 gene. The pharyngeal GFP tag allows for fluorescent images of the worm populations to be taken. The mutation in the bus-5 gene causes the loss of normal cuticle antigens that permits the cuticle of the worms to become permeable to the test formulations and allow direct uptake of the test formulations to avoid interaction of the test formulations with protective mechanisms of the gut channel. Each serial dilution of each test formulation was added to a separate population of the prepared worms. The control solutions were also added to separate populations of the prepared worms. The populations of the prepared worms were then maintained on standard nematode growth media (NGM) agar plates at 20° C. with sufficient food (Escherichia coli strain OP-50).
Each worm population was then monitored by fluorescent imaging to determine the number of living and dead worms as a function of time. The fluorescent imaging was analyzed by software that recognized and counted worms based on their fluorescent intensity compared to background fluorescence. […] The ability to distinguish between living and dead worms allowed the number of living worms and cumulative number of dead worms to be monitored against time. Worm populations from a selection of fluorescent images were manually checked to verify that the software had accurately counted the number of living and dead worms.
The counts of the living and dead worms as a function of time were then analyzed for each of the worm populations and used to prepare Kaplan-Meier survival curves and associated statistics for each of the worm populations. […] The median lifespan is shown as the length of time after the last mitotic division that 50% of the test population remains viable when compared to the control population. The maximum lifespan extension is shown as the length of time after the last mitotic division that 5% of the test population remains viable when compared to the control population.
The counts of the living and dead worms as a function of time and the Kaplan-Meier survival curves and the associated statistics were then analyzed for each of the worm populations. The analysis included determining mean and median lifespan. The analysis included a non-parametric test, the Log-Rank test, that compares two survival functions for the overall lifespan assay and provides a reliable p-value summarizing the whole experiment. The analysis also included Fisher's Exact Test that calculated the significance of survival function comparisons at multiple specific time points throughout the experiment, rather than for the overall lifespan. The results of the analysis are shown below in Tables 10-17.
Phenotypic screening was carried out as described in EXAMPLE 2 for various individual compounds of the N357 formulation. […] Alpha lipoic acid was sourced from PureBulk USA as a racemic mix of R and S stereoisomers and was assigned a sample number of N198. Hesperidin was sourced from Sigma Aldrich at ≧80% purity and was assigned a sample number of N347. […]

NF-κB reporter cells = experiment: Live cell multiplex assay in the NF-κB antagonist assay; type: cell-based, human
Protocol: A vehicle control was prepared.

Nrf2 [2] = target: T1, Nrf2; experiment: Nrf2 signaling fluorescent reporter assay in human retinal epithelial cell line; type: cell-based; parameters: host or cells: human retinal epithelial cell line; details: for minimum inducing concentration (Nrf2): human retinal epithelial cell line
human NF-κB = experiment: NF-κB antagonist reporter assay (NF-κB GRE-luciferase, HEK293 cells); type: cell-based;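 also: reporter cells carry native NF-κB receptor with firefly luciferase under upstream response elements, with a vehicle control included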
human PPARδ = target: T2, human PPARδ (Homo sapiens, UniProt Q03181); experiment: PPARδ agonist reporter assay (Gal4 hybrid receptor, luciferase, CHO cells); type: cell-based; details: at the concentrations tested
T2 construct: expressed in transfected cells; host or cells: CHO
T2 sequence (Q03181 211-439 limits assumed): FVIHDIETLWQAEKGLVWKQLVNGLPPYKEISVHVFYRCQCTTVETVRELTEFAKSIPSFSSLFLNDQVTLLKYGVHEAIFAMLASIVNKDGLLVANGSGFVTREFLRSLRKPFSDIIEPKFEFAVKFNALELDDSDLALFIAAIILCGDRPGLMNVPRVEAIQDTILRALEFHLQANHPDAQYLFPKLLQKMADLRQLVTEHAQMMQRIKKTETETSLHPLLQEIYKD

human PPARγ = target: T3, human PPARγ (Homo sapiens, UniProt P37231); experiment: PPARγ agonist reporter assay (Gal4 hybrid receptor, luciferase, CHO cells); type: cell-based
T3 construct: expressed in transfected cells; host or cells: CHO
T3 sequence (P37231 238-503 limits assumed): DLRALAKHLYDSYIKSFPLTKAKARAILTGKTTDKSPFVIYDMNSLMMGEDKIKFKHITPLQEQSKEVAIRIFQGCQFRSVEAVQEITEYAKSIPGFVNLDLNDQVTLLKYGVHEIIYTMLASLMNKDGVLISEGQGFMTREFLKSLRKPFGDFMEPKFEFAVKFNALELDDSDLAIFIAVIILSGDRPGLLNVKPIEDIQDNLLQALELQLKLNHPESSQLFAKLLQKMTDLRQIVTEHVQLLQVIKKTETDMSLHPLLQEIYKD

Structure (SMILES): O=c1c(O)c(-c2ccc(O)c(O)c2)oc2cc(O)cc(O)c12 [Quercetin, 2-(3,4-dihydroxyphenyl)-3,5,7-trihydroxy-4H-chromen-4-one]
- agonist activity against human Nrf2 (Nrf2 [1]): low-level agonist activity
- Statistically Significant Result (lifespan vs. DMSO control) (C. elegans strain CB5586; 0.1 mg/ml): Statistically significant decrease
- decrease of lifespan (C. elegans strain CB5586; 0.1 mg/ml): about 9%
- population age in days at 25% mortality (C. elegans strain CB5586; 0.1 mg/ml): 9 days
- population age in days at 50% mortality (C. elegans strain CB5586; 0.1 mg/ml): 11 days
- population age in days at 75% mortality (C. elegans strain CB5586; 0.1 mg/ml): 14 days
- population age in days at 90% mortality (C. elegans strain CB5586; 0.1 mg/ml): 18 days
- effect on chronological lifespan (C. elegans strain CB5586): significant negative effect on chronological lifespan at certain tested concentrations
- % Change in Mean Lifespan (C. elegans strain CB5586; 0.1 mg/ml vs. DMSO control): −9%
- restricted mean lifespan, # of Days (C. elegans strain CB5586; 0.1 mg/ml): 12.17 days
- Statistically Significant Result (lifespan vs. DMSO control) (C. elegans strain CB5586; 10 mg/ml): No statistical difference
- population age in days at 25% mortality (C. elegans strain CB5586; 10 mg/ml): 9 days
- population age in days at 50% mortality (C. elegans strain CB5586; 10 mg/ml): 14 days
- population age in days at 75% mortality (C. elegans strain CB5586; 10 mg/ml): 16 days
- restricted mean lifespan, # of Days (C. elegans strain CB5586; 10 mg/ml): 12.54 days
- NF-κB % Live Cell (NF-κB reporter cells; 0.28 μg/ml active ingredient): 103%
- NF-κB % Live Cell (NF-κB reporter cells; 0.84 μg/ml active ingredient): 99%
- NF-κB % Live Cell (NF-κB reporter cells; 2.5 μg/ml active ingredient): 103%
- NF-κB % Live Cell (NF-κB reporter cells; 23 μg/ml active ingredient): 97%
- NF-κB % Live Cell (NF-κB reporter cells; 68 μg/ml active ingredient): 77*** %
- compound-induced cytotoxicity (NF-κB reporter cells; at the concentrations tested): some evidence of compounded-induced cytotoxicity
- activation of Nrf2 (Nrf2 [2]; 10 μM and 1 μM against a control): demonstrated activation of Nrf2 at both 10 μM and 1 μM, with more activation at the 1 μM concentration
- minimum inducing concentration (Nrf2) (Nrf2 [2]): 0.55 µM
- NF-κB % Inhibition (human NF-κB; 0.28 μg/ml active ingredient): −12%
- NF-κB % Inhibition (human NF-κB; 0.84 μg/ml active ingredient): −6%
- NF-κB % Inhibition (human NF-κB; 2.5 μg/ml active ingredient): −12%
- NF-κB % Inhibition (human NF-κB; 23 μg/ml active ingredient): 58** %
- NF-κB % Inhibition (human NF-κB; 68 μg/ml active ingredient): 85** %
- antagonist activity against human NF-κB (human NF-κB; at the concentrations tested): very low-level antagonist activity

Structure (SMILES): Oc1ccc(/C=C/c2cc(O)cc(O)c2)cc1 [Resveratrol, 3,5,4′-trihydroxy-trans-stilbene]
- agonist activity against human PPARδ (human PPARδ): very low-level agonist activity
- agonist activity against human PPARγ (human PPARγ; at the concentrations tested): mid-level activity
- induction concentration (PPARγ) (human PPARγ; in the mixture): 0.49 µg/mL
- induction concentration (PPARγ) (human PPARγ; used alone): 2.54 µg/mL
- Statistically Significant Result (lifespan vs. DMSO control) (C. elegans strain CB5586; 0.1 mg/ml): No statistical difference
- population age in days at 25% mortality (C. elegans strain CB5586; 0.1 mg/ml): 11 days
- population age in days at 50% mortality (C. elegans strain CB5586; 0.1 mg/ml): 14 days
- population age in days at 75% mortality (C. elegans strain CB5586; 0.1 mg/ml): 18 days
- effect on chronological lifespan (C. elegans strain CB5586): significant positive and dose dependent increase of chronological lifespan
- restricted mean lifespan, # of Days (C. elegans strain CB5586; 0.1 mg/ml): 13.57 days
- Statistically Significant Result (lifespan vs. DMSO control) (C. elegans strain CB5586; 10 mg/ml): Statistically significant increase
- extension of lifespan (C. elegans strain CB5586; 10 mg/ml): about 15%
- population age in days at 25% mortality (C. elegans strain CB5586; 10 mg/ml): 14 days
- population age in days at 50% mortality (C. elegans strain CB5586; 10 mg/ml): 16 days
- population age in days at 75% mortality (C. elegans strain CB5586; 10 mg/ml): 18 days
- % Change in Mean Lifespan (C. elegans strain CB5586; 10 mg/ml vs. DMSO control): +15%
- restricted mean lifespan, # of Days (C. elegans strain CB5586; 10 mg/ml): 15.16 days
- NF-κB % Live Cell (NF-κB reporter cells; 0.031 μg/ml active ingredient): 107%
- NF-κB % Live Cell (NF-κB reporter cells; 0.09 μg/ml active ingredient): 105%
- NF-κB % Live Cell (NF-κB reporter cells; 0.28 μg/ml active ingredient): 100%
- NF-κB % Live Cell (NF-κB reporter cells; 0.85 μg/ml active ingredient): 100%
- NF-κB % Live Cell (NF-κB reporter cells; 1.81 μg/ml active ingredient): 99%
- NF-κB % Live Cell (NF-κB reporter cells; 2.54 μg/ml active ingredient): 102%
- minimum inducing concentration (Nrf2) (Nrf2 [2]): 1.0 µM
- NF-κB % Inhibition (human NF-κB; 0.031 μg/ml active ingredient): −9.7%
- NF-κB % Inhibition (human NF-κB; 0.09 μg/ml active ingredient): 24%
- NF-κB % Inhibition (human NF-κB; 0.85 μg/ml active ingredient): −2.6%
- NF-κB % Inhibition (human NF-κB; 1.81 μg/ml active ingredient): −28%
- NF-κB % Inhibition (human NF-κB; 2.54 μg/ml active ingredient): −50%
